This passage reports IC50 results from patent US10106501B2, “Nuclear receptor modulators” (AbbVie Inc., priority 2015, dated 2018).

pIC50: −log10 of the molar value.

The test addresses T1, chimeric human RORγ-Gal4 receptor (Homo sapiens, UniProt P51449).
T1 sequence (P51449 269-508 limits assumed): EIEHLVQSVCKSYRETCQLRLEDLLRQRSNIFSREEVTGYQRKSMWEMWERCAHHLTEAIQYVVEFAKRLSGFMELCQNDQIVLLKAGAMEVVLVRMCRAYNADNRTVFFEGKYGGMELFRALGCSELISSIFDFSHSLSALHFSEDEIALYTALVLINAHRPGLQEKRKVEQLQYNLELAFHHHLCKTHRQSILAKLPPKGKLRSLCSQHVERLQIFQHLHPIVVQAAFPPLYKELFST
Nature of the test: transient transactivation assay (RORγ-Gal4 luciferase reporter). Type of test: cell-based. The settings on record: Cos-7 cells transfected with RORγ-Gal4 and 5Gal4 pGL3 TK Luc reporter; overnight incubation; T0901317 at 10^-5 M as reference; read-out: IC50.

With `Cc1cc(C(F)(F)F)cc2c1cc(C(=O)c1c(Cl)ccc(C(=O)N3CC[C@H](C(=O)O)[C@H](C)C3)c1Cl)n2C` (racemic) [AQ-3], the pIC50 is above 7.00.
The value for `Cc1cc(C#N)cc2c1cc(Cc1c(Cl)ccc(O[C@H]3CC[C@@H](C(=O)O)C3)c1Cl)n2C` (relative stereo) [Example AG1, cis-3-(2,4-dichloro-3-((6-cyano-1,4-dimethyl-1H-indol-2-yl)methyl)phenoxy)cyclopentanecarboxylic acid] was 6.00 to 6.30; that for `Cc1cc(C#N)cc2c1cc(Cc1c(Cl)ccc(O[C@H]3CC[C@H](C(=O)O)C3)c1Cl)n2C` (relative stereo) [Example AG, trans-3-(2,4-dichloro-3-((6-cyano-1,4-dimethyl-1H-indol-2-yl)methyl)phenoxy)cyclopentanecarboxylic acid] was 6.30 to 7.00; that for `COCCN1CCN(C(=O)c2ccc(Cl)c(Cc3cc4c(C)cc(C(F)(F)F)cc4n3C)c2Cl)CC1` [A, (2,4-dichloro-3-((1,4-dimethyl-6-(trifluoromethyl)-1H-indol-2-yl)methyl)phenyl)(4-(2-methoxyethyl)piperazin-1-yl)methanone] was above 7.00.
As to `Cc1cc(C#N)cc2c1cc(Cc1c(Cl)ccc(C(=O)N3CCC(C(C)O)CC3)c1Cl)n2C` (stereo not drawn) [AA-1], the pIC50 was above 7.00.
Under `Cc1cc(C#N)cc2c1cc(Cc1c(Cl)ccc(C(=O)N3CCCC(O)C3)c1Cl)n2C` (stereo not drawn) [AA-5] stands 6.30 to 7.00; under `Cc1cc(C#N)cc2c1cc(Cc1c(Cl)ccc(C(=O)N3CCC(N(C)C)CC3)c1Cl)n2C` [AA-6], 6.30 to 7.00.
In the case of `Cc1cc(C#N)cc2c1cc(Cc1c(Cl)ccc(C(=O)N3CCC(C(C)(C)CO)CC3)c1Cl)n2C` [AA-8], the pIC50 is above 7.00.
Under `Cc1cc(C#N)cc2c1cc(Cc1c(Cl)ccc(C(=O)N3CCN(C)C(C)C3)c1Cl)n2C` (stereo not drawn) [AA-10] stands 6.30 to 7.00; under `Cc1cc(C#N)cc2c1cc(Cc1c(Cl)ccc(C(=O)N3CCN(C(C)C)CC3)c1Cl)n2C` [AA-11], above 7.00; under `Cc1cc(C#N)cc2c1cc(Cc1c(Cl)ccc(C(=O)N3CCCN(CCO)CC3)c1Cl)n2C` [AA-13], 6.30 to 7.00.
The value for `Cc1cc(C#N)cc2c1cc(Cc1c(Cl)ccc(C(=O)N3CCC(N(C)C)C3)c1Cl)n2C` (stereo not drawn) [AA-14] was 6.30 to 7.00; that for `Cc1cc(C#N)cc2c1cc(Cc1c(Cl)ccc(C(=O)N3CC(N4CCCC4)C3)c1Cl)n2C` [AA-16] was 6.30 to 7.00.
The value for `Cc1cc(C#N)cc2c1cc(Cc1c(Cl)ccc(C(=O)N3CCC(CO)C3)c1Cl)n2C` (stereo not drawn) [AA-19] was 6.30 to 7.00; that for `Cc1cc(C#N)cc2c1cc(Cc1c(Cl)ccc(C(=O)N3CC(O)C3)c1Cl)n2C` [AA-20] was 6.30 to 7.00.
In the case of `COC1CN(C(=O)c2ccc(Cl)c(Cc3cc4c(C)cc(C#N)cc4n3C)c2Cl)C1` [AA-21], the negative-log IC50 (pIC50) was 6.30 to 7.00.
Under `Cc1cc(C#N)cc2c1cc(Cc1c(Cl)ccc(C(=O)NC3CCC(O)CC3)c1Cl)n2C` (stereo not drawn) [AA-22] stands 6.30 to 7.00; under `Cc1cc(C#N)cc2c1cc(Cc1c(Cl)ccc(C(=O)NC3CCOCC3)c1Cl)n2C` [AA-23], 6.00 to 6.30.
Under `Cc1cc(C#N)cc2c1cc(Cc1c(Cl)ccc(C(=O)NC3COC3)c1Cl)n2C` [AA-24] stands 6.30 to 7.00.
As to `Cc1cc(C#N)cc2c1cc(Cc1c(Cl)ccc(C(=O)N3CCC4(CC3)COC4)c1Cl)n2C` [AA-25], the pIC50 is 6.30 to 7.00.
Take `Cc1cc(C#N)cc2c1cc(Cc1c(Cl)ccc(C(=O)N3CC4(COC4)C3)c1Cl)n2C` [AA-26]: the pIC50 was 6.30 to 7.00.
With `CNC(=O)[C@@H]1CCCN1C(=O)c1ccc(Cl)c(Cc2cc3c(C)cc(C#N)cc3n2C)c1Cl` [AA-32], the pIC50 was 6.30 to 7.00.
The value for `Cc1cc(C#N)cc2c1cc(C(=O)c1c(Cl)ccc(C(=O)N3CC(O)C3)c1Cl)n2C` [AN-1] was 6.00 to 6.30.
As for `Cc1cc(C(F)(F)F)cc2c1cc(C(=O)c1c(Cl)ccc(C(=O)N3CCC(C4COC4)CC3)c1Cl)n2C` [AP-6], the negative-log IC50 (pIC50) is above 7.00.
Under `Cc1cc(C(F)(F)F)cc2c1cc(C(=O)c1c(Cl)ccc(C(=O)N3C[C@@H]4[C@H](C3)[C@H]4C(=O)O)c1Cl)n2C` [AQ-2] stands 6.30 to 7.00; under `Cc1cc(C(F)(F)F)cc2c1cc(C(=O)c1c(Cl)ccc(C(=O)N3CC[C@H](C(=O)O)[C@H](C)C3)c1Cl)n2C` [AQ-4], above 7.00; under `Cc1cc(C(F)(F)F)cc2c1cc(C(=O)c1c(Cl)ccc(C(=O)N3CC[C@@H](C(=O)O)[C@@H](C)C3)c1Cl)n2C` [AQ-5], above 7.00.
`Cc1cc(C(F)(F)F)cc2c1cc(Cc1c(Cl)ccc(C(=O)N3CCC(C(=O)O)CC3)c1Cl)n2C` [B, 1-(2,4-dichloro-3-((1,4-dimethyl-6-(trifluoromethyl)-1H-indol-2-yl)methyl)benzoyl)piperidine-4-carboxylic acid]: the pIC50 was above 7.00.
Under `Cc1cc(C#N)cc2c1cc(Cc1c(Cl)cnc(C(=O)N3CCC(C4COC4)CC3)c1Cl)n2C` [BF-1] stands above 7.00; under `Cc1cc(C#N)cc2c1cc(Cc1c(Cl)cnc(C(=O)N3CCC(O)CC3)c1Cl)n2C` [BF-2], 6.30 to 7.00; under `Cc1cc(C#N)cc2c1cc(Cc1c(Cl)cnc(C(=O)N3CCN(C4COC4)CC3)c1Cl)n2C` [BF-4], 6.30 to 7.00.
Under `Cc1cc(C(F)(F)F)cc2c1cc(Cc1c(Cl)ncc(C(=O)N3CCC(O)(CCO)CC3)c1Cl)n2C` [BH-2] stands 6.30 to 7.00; under `CNC(=O)[C@@H]1CCCN1C(=O)c1ccc(Cl)c(Cc2nc3c(C)cc(C(F)(F)F)cc3n2C)c1Cl` [BJ-1], 5.00 to 6.00.
Under `Cc1cc(C(F)(F)F)cc2c1nc(Cc1c(Cl)ccc(C(=O)N3CCC4(CCOC4)CC3)c1Cl)n2C` [BJ-8] stands above 7.00; under `Cc1cc(C(F)(F)F)cc2c1nc(Cc1c(Cl)ccc(C(=O)N3CCC(C(C)(C)O)CC3)c1Cl)n2C` [BJ-9], 6.30 to 7.00.
Regarding `Cc1cc(C(F)(F)F)cc2c1nc(Cc1c(Cl)ccc(C(=O)N3CCC(C(C)(C)CO)CC3)c1Cl)n2C` [BJ-10], the pIC50 is above 7.00.
The value for `Cc1cc(C(F)(F)F)cc2c1nc(Cc1c(Cl)ccc(C(=O)N3CCC(C(C)O)CC3)c1Cl)n2C` (stereo not drawn) [BJ-12] was above 7.00; that for `COCC1CCN(C(=O)c2ccc(Cl)c(Cc3nc4c(C)cc(C(F)(F)F)cc4n3C)c2Cl)CC1` [BJ-13] was 6.30 to 7.00; that for `Cc1cc(C(F)(F)F)cc2c1nc(Cc1c(Cl)ccc(C(=O)N3CCC(CC(C)(C)O)CC3)c1Cl)n2C` [BJ-14] was 6.30 to 7.00.
The value for `Cc1cc(C(F)(F)F)cc2c1nc(Cc1c(Cl)ccc(C(=O)N3CCC(CCO)CC3)c1Cl)n2C` [BJ-16] was 6.30 to 7.00; that for `Cc1cc(C(F)(F)F)cc2c1nc(Cc1c(Cl)ccc(C(=O)N3CCC(C4COC4)CC3)c1Cl)n2C` [BJ-17] was above 7.00; that for `COCCC1CCN(C(=O)c2ccc(Cl)c(Cc3nc4c(C)cc(C(F)(F)F)cc4n3C)c2Cl)CC1` [BJ-18] was above 7.00.
Consider `Cc1cc(C(F)(F)F)cc2c1nc(Cc1c(Cl)ccc(C(=O)N3CCC(CC(C)O)CC3)c1Cl)n2C` (stereo not drawn) [BJ-19], for which the pIC50 is 6.30 to 7.00.
Under `COC1CCC(NC(=O)c2ccc(Cl)c(Cc3nc4c(C)cc(C(F)(F)F)cc4n3C)c2Cl)CC1` (stereo not drawn) [BJ-22] stands 6.30 to 7.00.
For `Cc1cc(C(F)(F)F)cc2c1nc(Cc1c(Cl)ccc(C(=O)N3CCC4(CC3)COC4)c1Cl)n2C` [BJ-25], the pIC50 is 6.00 to 6.30.
Under `Cc1cc(C(F)(F)F)cc2c1nc(Cc1c(Cl)ccc(C(=O)N3CC4(COC4)C3)c1Cl)n2C` [BJ-28] stands 5.00 to 6.00.
The value for `Cc1cc(C(F)(F)F)cc2c1nc(Cc1c(Cl)ccc(C(=O)N3CCC(N(C)C)CC3)c1Cl)n2C` [BJ-30] was 6.30 to 7.00; that for `Cc1cc(C(F)(F)F)cc2c1nc(Cc1c(Cl)ccc(C(=O)N3CCN(C)C(C)C3)c1Cl)n2C` (stereo not drawn) [BJ-31] was 5.00 to 6.00; that for `Cc1cc(C(F)(F)F)cc2c1nc(Cc1c(Cl)ccc(C(=O)N3CCN(C4COC4)CC3)c1Cl)n2C` [BJ-38] was 6.30 to 7.00.
Under `Cc1cc(C(F)(F)F)cc2c1nc(Cc1c(Cl)ccc(C(=O)N3CCN(C(C)C)CC3)c1Cl)n2C` [BJ-40] stands 6.30 to 7.00; under `COCCC1CCN(C(=O)c2ccc(Cl)c(Cc3nc4c(C)cc(C#N)cc4n3C)c2Cl)CC1` [BN-3], 6.30 to 7.00.
On to `Cc1cc(C#N)cc2c1nc(Cc1c(Cl)ccc(C(=O)N3CCC(C(C)(C)CO)CC3)c1Cl)n2C` [BN-6], for which the pIC50 is 6.30 to 7.00.
Under `Cc1cc(C#N)cc2c1nc(Cc1c(Cl)ccc(C(=O)N3CCC(C(C)(C)O)CC3)c1Cl)n2C` [BN-7] stands 6.30 to 7.00; under `Cc1cc(C#N)cc2c1nc(Cc1c(Cl)ccc(C(=O)N3CCC4(CCOC4)CC3)c1Cl)n2C` [BN-8], 6.30 to 7.00.
The value for `Cc1cc(C#N)cc2c1nc(Cc1c(Cl)ccc(C(=O)N3CCN(C4COC4)CC3)c1Cl)n2C` [BN-11] was 6.00 to 6.30; that for `Cc1cc(C#N)cc2c1nc(Cc1c(Cl)ccc(C(=O)N3CCC(C4COC4)CC3)c1Cl)n2C` [BN-12] was 6.30 to 7.00; that for `Cc1cc(C#N)cc2c1nc(Cc1c(Cl)ccc(C(=O)N3CCC(N(C)C)CC3)c1Cl)n2C` [BN-14] was 5.00 to 6.00.
The value for `Cc1cc(C#N)cc2c1nc(Cc1c(Cl)ccc(C(=O)N3CCC(CC(C)(C)O)CC3)c1Cl)n2C` [BN-16] was 6.00 to 6.30; that for `Cc1cc(C(F)(F)F)cc2c1nc(Cc1c(Cl)ccc(CN3CCC(C4COC4)CC3)c1Cl)n2C` [BW-1] was 6.30 to 7.00; that for `COC1CCN(Cc2ccc(Cl)c(Cc3nc4c(C)cc(C(F)(F)F)cc4n3C)c2Cl)CC1` [BW-2] was 6.30 to 7.00.
Turning to `COCC1CCN(Cc2ccc(Cl)c(Cc3nc4c(C)cc(C(F)(F)F)cc4n3C)c2Cl)CC1` [BW-3], the pIC50 was 6.30 to 7.00.
Under `Cc1cc(C(F)(F)F)cc2c1nc(Cc1c(Cl)ccc(CN3CCC(O)CC3)c1Cl)n2C` [BW-4] stands 6.30 to 7.00; under `Cc1cc(C(F)(F)F)cc2c1nc(Cc1c(Cl)ccc(CN3CCCC(O)C3)c1Cl)n2C` (stereo not drawn) [BW-5], 6.30 to 7.00.
